From patent US8574831B2, “Mutational profiles in HIV-1 reverse transcriptase correlated with phenotypic drug resistance” (Virco N.V., priority 2000, dated 2013)

Test system: HIV with mutations in the HIV protease sequence
Experiment: Phenotypic fold resistance to protease inhibitors, protease mutations 84A/84L/84C/54M/54L/54V in a background (Examples 8-13)
Format: cell-based, HIV-1
Experimental: As is the case with the genotyping assays, the recombinant virus assay starts with the amplification of viral target sequences by means of PCR. The amplicons are incorporated into a proviral laboratory clone with sequences homologous to those present in the amplicon deleted. This generates a stock of chimeric viruses. The viruses are tested for their ability to grow in the presence of different concentrations of drugs. Results are obtained by calculating IC50 values for each inhibitor and by reporting the results as IC50 values, expressed in μM concentrations, or by computing the ratio of the IC50 values found for the chimeric virus to the IC50 values found for a wild type susceptible laboratory virus tested in parallel. In the latter case, resistance is expressed as “fold-resistance” compared to a wild-type susceptible HIV-1 strain. In order to meet the need for high-volume testing and a short turn-around time for an individual test, the latest generation of phenotyping assays has undergone further modifications. The use of reporter gene systems for susceptibility testing allows the implementation of laboratory automation and standardization. See Pauwels, et al., J. Virol. Methods 20, 309-321 (1998); Paulous, S., et al., International Workshop on HIV Drug Resistance, Treatment Strategies and Eradication, St. Petersburg, Fla., USA. Abstr. 46 (1997); and Deeks, S. G., et al., 2nd International Workshop on HIV Drug Resistance and Treatment Strategies, Lake Maggiore, Italy. Abstr. 53 (1998).
The ANTIVIROGRAM® assay (Virco) (WO 97/27480) is based on homologous recombination of patient derived HIV-1 gag/PR/RT sequences into a proviral HIV-1 clone correspondingly deleted for the gag/PR/RT sequences. See Pauwels, et al., J. Virol. Methods 20, 309-321 (1998). A similar assay (Phenosense ViroLogic) is based on enzymatic ligation of patient-derived PR/RT sequences into a correspondingly deleted proviral vector carrying an indicator gene, luciferase, inserted in the deleted HIV-1 envelope gene. See Deeks, S. G., et al., 2nd International Workshop on HIV Drug Resistance and Treatment Strategies, Lake Maggiore, Italy. Abstr. 53 (1998). Hertogs et al. Antimicrob. Agents Chemother. 44(3) 568-573 (2000) the disclosures of which are herein incorporated by reference.
The methods of monitoring HIV-1 drug resistance, may also be used in combination with phenotypic drug resistance testing of viral isolates. For example, in one embodiment, a phenotypic test is utilized that is based upon the construction of chimeric HIV-1 strains composed of the protease (PR) and reverse transcriptase (RT) gene sequences which are isolated and amplified from the patient viral RNA. These strains may subsequently be recombined inside CD4+ T cells with a standard laboratory isogenic (HXB2) HIV-1 DNA construct from which the PR/RT gene sequences were deleted. The recombinant strains may then be grown in the presence of the above-mentioned antiviral drugs and the susceptibility of the viral isolates may be expressed as fold-change value of the IC50 of the drug on the patient isolates over the IC50 of the drug on a wild-type laboratory reference strain.

## CC(C)(C)NC(=O)[C@@H]1C[C@@H]2CCCC[C@@H]2CN1C[C@@H](O)[C@H](Cc1ccccc1)NC(=O)[C@H](CC(N)=O)NC(=O)c1ccc2ccccc2n1 [Saquinavir, saquinavir]
Table 9 #1, protease genotype WT
  mean fold increase in resistance: 0.9 fold
Table 9 #2, protease genotype 10I
  mean fold increase in resistance: 0.9 fold
Table 9 #3, protease genotype 46I
  mean fold increase in resistance: 0.6 fold
Table 9 #4, protease genotype 46I + 84V
  mean fold increase in resistance: 2.5 fold
Table 9 #5, protease genotype 46I + 84A
  mean fold increase in resistance: 38.1 fold
Table 9 #6, protease genotype 10I + 46I
  mean fold increase in resistance: 0.5 fold
Table 9 #7, protease genotype 10I + 46I + 84V
  mean fold increase in resistance: 4.1 fold
Table 9 #8, protease genotype 10I + 46I + 84A
  mean fold increase in resistance: 48.2 fold
Table 9 #9, protease genotype 10L/I + 46I + 84A
  mean fold increase in resistance: 46.4 fold
Table 9 #10, protease genotype 10I + 46I + 84A
  mean fold increase in resistance: 42.8 fold
Table 9 #11, protease genotype 46I + 71V
  mean fold increase in resistance: 0.6 fold
Table 9 #12, protease genotype 46I + 71V + 84V/I
  mean fold increase in resistance: 0.6 fold
Table 9 #13, protease genotype 46I + 71V + 84A
  mean fold increase in resistance: 47.7 fold
Table 9 #14, protease genotype 10F + 46I + 71V
  mean fold increase in resistance: 1.9 fold
Table 9 #15, protease genotype 10I + 46I + 71V + 84V
  mean fold increase in resistance: 15.9 fold
Table 9 #16, protease genotype 10I + 46I + 71V + 84A
  mean fold increase in resistance: 48.2 fold
Table 9 #17, protease genotype 10V + 46I + 71T + 84A
  mean fold increase in resistance: 48.2 fold
Table 9 #18, protease genotype 10I + 46I + 71V + 77I
  mean fold increase in resistance: 1.3 fold
Table 9 #19, protease genotype 10I + 46I + 71V + 77I + 84V
  mean fold increase in resistance: 2.5 fold
Table 9 #20, protease genotype 10I + 46I + 71V + 77I + 84A
  mean fold increase in resistance: 47.1 fold
Table 9 #21, protease genotype 10I + 33L/I + 46I + 71V + 77V/I + 84A
  mean fold increase in resistance: 44.7 fold
Table 10 #1, protease genotype 10I + 36I + 71V
  mean fold increase in resistance: 1.6 fold
Table 10 #2, protease genotype 10I + 36I + 71I + 84V
  mean fold increase in resistance: 0.8 fold
Table 10 #3, protease genotype 10I + 36I + 71I + 84L
  mean fold increase in resistance: 10.2 fold
Table 11 #1, protease genotype WT
  mean fold increase in resistance: 0.9 fold
Table 11 #2, protease genotype 84V
  mean fold increase in resistance: 0.7 fold
Table 11 #3, protease genotype 84C
  mean fold increase in resistance: 26.4 fold
Table 11 #4, protease genotype 10I
  mean fold increase in resistance: 0.9 fold
Table 11 #5, protease genotype 10I + 84V
  mean fold increase in resistance: 2.7 fold
Table 11 #6, protease genotype 10I + 84C
  mean fold increase in resistance: 37.1 fold
Table 11 #7, protease genotype 77I
  mean fold increase in resistance: 0.3 fold
Table 11 #8, protease genotype 77I + 84V
  mean fold increase in resistance: 3.5 fold
Table 11 #9, protease genotype 77I + 84C
  mean fold increase in resistance: 18.1 fold
Table 11 #10, protease genotype 77I + 84C
  mean fold increase in resistance: 18.5 fold
Table 11 #11, protease genotype 10I + 24I + 36I + 46I + 71V + 84C
  mean fold increase in resistance: 46.4 fold
Table 12, V19263, genotype 77I
  Fold change in IC50: 0.3 fold
Table 12, V20160, genotype WT
  Fold change in IC50: 0.9 fold
Table 12, V021667, genotype 10I
  Fold change in IC50: 0.9 fold
Table 12, V030496, genotype 10I + 77I
  Fold change in IC50: 0.3 fold
Table 12, V048869, genotype 10I + 54M + 77I + 90M
  Fold change in IC50: 5.1 fold
Table 12, V048872, genotype 33F + 54M + 77I + 90M
  Fold change in IC50: 5.2 fold
Table 12, V048873, genotype 33F + 54M + 77I + 90M
  Fold change in IC50: 3.1 fold
Table 12, V048877, genotype 10I + 33F + 77I + 90M
  Fold change in IC50: 1.5 fold
Table 12, V048878, genotype 10I + 33F + 54M + 71V + 77I + 90M
  Fold change in IC50: 4.0 fold
Table 12, V048879, genotype 10I + 33F + 54M + 71V + 77I + 90M
  Fold change in IC50: 51.8 fold
Table 12, V048880, genotype 10I + 33F + 77I + 90M
  Fold change in IC50: 2.7 fold
Table 12, V052940, genotype 71V
  Fold change in IC50: 0.8 fold
Table 12, V052942, genotype 10I + 71V
  Fold change in IC50: 0.8 fold
Table 12, V052943, genotype 10I + 90M
  Fold change in IC50: 1.1 fold
Table 12, V052944, genotype 10I + 90M
  Fold change in IC50: 0.7 fold
Table 12, V052945, genotype 77I + 90M
  Fold change in IC50: 1.4 fold
Table 12, V052946, genotype 71V + 90M
  Fold change in IC50: 1.4 fold
Table 12, V052947, genotype 10I + 77I + 90M
  Fold change in IC50: 3.9 fold
Table 12, V052948, genotype 10I + 71V + 90M
  Fold change in IC50: 4.8 fold
Table 12, V052949, genotype 10I + 71V + 77I + 90M
  Fold change in IC50: 2.1 fold
Table 12, V052950, genotype 33F
  Fold change in IC50: 1.2 fold
Table 12, V052951, genotype 33F + 77I
  Fold change in IC50: 0.4 fold
Table 12, V052953, genotype 10I + 33F + 77I
  Fold change in IC50: 1.2 fold
Table 12, V052954, genotype 33F + 77I + 90M
  Fold change in IC50: 1.7 fold
Table 12, V052955, genotype 33F + 71V + 90M
  Fold change in IC50: 20.4 fold
Table 12, V052977, genotype 10I + 33F + 54M
  Fold change in IC50: 0.5 fold
Table 12, V052978, genotype 10I + 33F + 54M + 71V + 90M
  Fold change in IC50: 9.9 fold
Table 12, V052979, genotype 10I + 54M
  Fold change in IC50: 1.4 fold
Table 12, V052980, genotype 10I + 54M + 90M
  Fold change in IC50: 1.4 fold
Table 12, V052981, genotype 10I + 54M + 71V + 90M
  Fold change in IC50: 5.4 fold
Table 12, V052982, genotype 10I + 54M + 71V + 77I + 90M
  Fold change in IC50: 4.2 fold
Table 12, V053832, genotype 10I + 33F
  Fold change in IC50: 0.5 fold
